In patent US11155517B2, “4-substituted phenylamine derivatives and their use to protect crops by fighting undesired phytopathogenic micoorganisms” (PI INDUSTRIES LTD., priority 2016, dated 2021) one finds inhibition of growth, inhibition and pest or weed control data, which are given here for eleven molecules.

One experiment deals with Colletotrichum capsici. The experiment can be described thus: Colletotrichum capsici (anthracnose) in vitro test, radial growth on Potato Dextrose Agar. In kind it is cell-based. The note with it: Colletotrichum truncatum; for inhibition of growth at 300 ppm: 168 h, seven days, 25° C., read-out: % control compared to the untreated check (radial growth); for inhibition at 300 ppm: Table 3 comparison, read-out: COLLCA % inhibition.

The test system of the next experiment is Corynespora cassicola. Briefly: Table 3 comparative % inhibition, Corynespora cassicola (CORYCA). In kind it is cell-based. The following applies: Table 3 comparison.
Experiment [1] concerns Alternaria solani. The experiment can be described thus: Alternaria solani (early blight of tomato/potato) in vitro test, radial growth on Potato Dextrose Agar. The note with it: for inhibition of growth at 300 ppm: 168 h, seven days, 25° C., read-out: % control compared to the untreated check (radial growth); for inhibition at 300 ppm: Table 3 comparison, read-out: ALTESO % inhibition. The format is cell-based.

The subject of another experiment is Septoria lycopersici. Briefly: Septoria lycopersici (leaf spot of tomato) in vitro test, radial growth on Potato Dextrose Agar. The format is cell-based. The note with it: 168 h, seven days, 25° C., read-out: % control compared to the untreated check (radial growth).
Experiment [2] concerns Fusarium culmorum. The experiment can be described thus: Fusarium culmorum (foot rot of cereals) in vitro test, radial growth on Potato Dextrose Agar. In kind it is cell-based. The note with it: Fusarium culmorum; for inhibition of growth at 300 ppm: 168 h, read-out: % control compared to the untreated check (radial growth); for inhibition at 300 ppm: Table 3 comparison, read-out: FUSACU % inhibition.

In experiment [3] the test system is Fusarium culmorum. Briefly: Greenhouse Fusarium culmorum test in wheat, preventive. The note with it: 24 h, read-out: Efficacy (% control), disease severity vs untreated check. The format is in vivo. The method in brief:
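Young greenhouse wheat sprayed preventively at stated rates (compounds in 2% DMSO/acetone, diluted in water), inoculated one day later with 2×10^6 Fusarium culmorum spores in 2% malt, held at 24 °C, 80-90% RH. Disease severity (0-100%) rated 3, 7, 10 and 15 days after application; % control versus untreated, phytotoxicity also recorded.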

The test system of the next experiment is Botrytis cinerea. The experiment can be described thus: Botrytis cinerea (gray mold) in vitro test, radial growth on Potato Dextrose Agar. In kind it is cell-based. The following applies: for inhibition of growth at 300 ppm: 168 h, seven days, 22° C., read-out: % (control) compared to the untreated check (radial growth); for inhibition at 300 ppm: read-out: BOTRCI % inhibition.

A further experiment deals with Rhizoctonia solani. Briefly: Rhizoctonia solani (rice sheath blight/potato black scurf) in vitro test, radial growth on Potato Dextrose Agar. In kind it is cell-based. The note with it: for inhibition of growth at 300 ppm: 168 h, seven days, 25° C., read-out: % control compared to the untreated check (radial growth); for inhibition at 300 ppm: Table 3 comparison, read-out: RHIZSO % inhibition.

Experiment [4] deals with Pyricularia oryzae. Briefly: microbe, parasite or virus in culture. The format is cell-based. The following applies: for inhibition of growth at 300 ppm: 168 h, read-out: % control compared to the untreated check (radial growth); for inhibition at 300 ppm: read-out: PYRIOR % inhibition.
In another experiment the test system is Botrytis cinera. Briefly: Greenhouse Botrytis cinera test in tomato, preventive. The format is in vivo. The note with it: 24 h, plants sprayed one day before inoculation, read-out: Efficacy (% control), disease severity vs untreated check.
Experiment [5] concerns Pyricularia oryzae. The experiment can be described thus: whole plant or invertebrate. The format is in vivo. The note with it: 24 h, read-out: Efficacy (% control), disease severity vs untreated check.
Experiment [6] has as its system Alternaria solani. The experiment can be described thus: Greenhouse Alternaria solani test in tomato, preventive. In kind it is in vivo. The following applies: 24 h, tomato plants sprayed one day before inoculation, read-out: Efficacy (% control), disease severity vs untreated check. The method in brief: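 Preventive test: greenhouse tomato plants sprayed with compounds (2% DMSO/acetone in water) at stated rates, inoculated one day later with Alternaria solani spores (0.24×10^6 in 2% malt), held at 22-24 °C, 90-95% RH. % control versus untreated plants; phytotoxicity also scored.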

[7] abbreviates: Dose 300 ppm, Table 3 comparison.

Where two headings read alike, the source gives them in different places.

On to `CCN(C)C=Nc1cc(C)c(Cc2ccccc2F)cc1Cl` [Compound 16, N′-(2-chloro-4-(2-fluorobenzyl)-5-methylphenyl)-N-ethyl-N-methylformimidamide], for which the inhibition of growth at 300 ppm in the experiment on Colletotrichum capsici is above 80%; in the experiment with Alternaria solani [1], above 75%; in the experiment on Septoria lycopersici, above 70%; in the experiment on Fusarium culmorum [2], 75%; in the experiment with Botrytis cinerea it was above 80%; with Rhizoctonia solani it was above 80%. Also, the inhibition of growth at 300 ppm with Pyricularia oryzae [4] was above 75%. The inhibition at 300 ppm with Colletotrichum capsici, in the experiment on Corynespora cassicola, in the experiment on Alternaria solani [1], in the experiment with Fusarium culmorum [2], in the experiment on Botrytis cinerea (setting [7]) and with Rhizoctonia solani was 100% each time. The inhibition (as a rule, how much of the control response was suppressed) at 300 ppm in the experiment with Pyricularia oryzae [4] came to 100%. Also, the pest or weed control at 500 ppm with Fusarium culmorum [3] fell in the range of 70 to 100%.

As for `CCN(C)C=Nc1cc(C)c(Cc2ccccc2)cc1Cl` [Compound 74, N′-(4-benzyl-2-chloro-5-methylphenyl)-N-ethyl-N-methylformimidamide], the inhibition of growth at 300 ppm was above 80% with Colletotrichum capsici; above 75% with Alternaria solani [1]; above 70% in the experiment on Septoria lycopersici; 75% in the experiment on Fusarium culmorum [2]; above 80% with Botrytis cinerea; above 80% in the experiment on Rhizoctonia solani. In the experiment with Pyricularia oryzae [4], the inhibition of growth at 300 ppm was above 75%. Further, the inhibition at 300 ppm was 100% in the experiment with Colletotrichum capsici; 71.2% in the experiment on Corynespora cassicola; 100% in the experiment on Alternaria solani [1]; 94.5% with Fusarium culmorum [2]; 94.5% with Botrytis cinerea; 100% with Rhizoctonia solani. For the same molecule, in the experiment on Pyricularia oryzae [4], the inhibition at 300 ppm came to 100%.

With `CCN(C)C=Nc1cc(C)c(C(C#N)c2cccc(C(F)(F)F)c2)cc1C` (stereo not drawn) [N′-(4-(cyano(3-(trifluoromethyl)phenyl)methyl)-2,5-dimethylphenyl)-N-ethyl-N-methylformimidamide], the inhibition at 300 ppm was 100% in the experiment with Colletotrichum capsici; 64.4% in the experiment on Corynespora cassicola; 100% in the experiment with Alternaria solani [1]; 0% with Fusarium culmorum [2]; 100% in the experiment on Botrytis cinerea (setting [7]); 100% in the experiment on Rhizoctonia solani. For the same molecule, the inhibition at 300 ppm in the experiment on Pyricularia oryzae [4] was 100%.

Turning to `CCN(C)C=Nc1cc(C)c(Cc2ccc(C(F)(F)F)cc2)cc1C` [Compound 94, N′-(2,5-dimethyl-4-(4-(trifluoromethyl)benzyl)phenyl)-N-ethyl-N-methylformimidamide], the inhibition of growth at 300 ppm in the experiment on Colletotrichum capsici was above 80%; in the experiment on Alternaria solani [1], above 75%; in the experiment on Septoria lycopersici, above 70%; in the experiment on Fusarium culmorum [2], 75%; with Botrytis cinerea, above 80%; with Rhizoctonia solani, above 80%. In addition, the inhibition of growth at 300 ppm with Pyricularia oryzae [4] was above 75%. In addition, the pest or weed control at 500 ppm with Botrytis cinera and in the experiment with Pyricularia oryzae [5] was 70 to 100% each time.

As for `CCN(C)C=Nc1cc(C)c(Cc2cc(C(F)(F)F)cc(C(F)(F)F)c2)cc1Cl` [Compound 96, N′-(4-(3,5-bis(trifluoromethyl)benzyl)-2-chloro-5-methylphenyl)-N-ethyl-N-methylformimidamide], the inhibition of growth at 300 ppm with Alternaria solani [1] was above 75%. In addition, the pest or weed control at 500 ppm with Fusarium culmorum [3] and with Pyricularia oryzae [5] was 70 to 100% each time.

In the case of `CCN(C)C=Nc1cc(Cl)c(Cc2ccccc2F)cc1Cl` [Compound 149, N′-(2,5-dichloro-4-(2-fluorobenzyl)phenyl)-N-ethyl-N-methylformimidamide], the inhibition of growth at 300 ppm with Alternaria solani [1] was above 75%; in the experiment on Botrytis cinerea, above 80%; in the experiment on Pyricularia oryzae [4], above 75%. In addition, the pest or weed control at 500 ppm in the experiment with Fusarium culmorum [3] and in the experiment with Pyricularia oryzae [5] was 70 to 100% throughout.

For `CCN(C)C=Nc1cc(C)c(Cc2ccc(C#N)cc2)cc1C` [Compound 48, N′-(4-(4-cyanobenzyl)-2,5-dimethylphenyl)-N-ethyl-N-methylformimidamide], the inhibition of growth at 300 ppm was above 80% with Colletotrichum capsici; above 75% in the experiment on Alternaria solani [1]; above 70% in the experiment on Septoria lycopersici; 75% with Fusarium culmorum [2]; above 80% in the experiment with Botrytis cinerea; above 80% with Rhizoctonia solani. Also, the inhibition of growth at 300 ppm in the experiment on Pyricularia oryzae [4] is above 75%. The pest or weed control at 500 ppm in the experiment on Pyricularia oryzae [5] and in the experiment on Alternaria solani [6] was 70 to 100% each time.

As for `CCN(C)C=Nc1cc(C)c(Cc2ccccc2F)cc1C` [Compound 15, N-ethyl-N′-(4-(2-fluorobenzyl)-2,5-dimethylphenyl)-N-methylformimidamide], the inhibition of growth at 300 ppm with Colletotrichum capsici is above 80%; with Alternaria solani [1], above 75%; in the experiment on Septoria lycopersici, above 70%; in the experiment with Fusarium culmorum [2], 75%; in the experiment on Botrytis cinerea, above 80%; with Rhizoctonia solani, above 80%. In addition, the inhibition of growth at 300 ppm in the experiment with Pyricularia oryzae [4] is above 75%. Further, the inhibition at 300 ppm in the experiment with Colletotrichum capsici, in the experiment with Corynespora cassicola, in the experiment on Alternaria solani [1], in the experiment on Fusarium culmorum [2], in the experiment with Botrytis cinerea (setting [7]) and with Rhizoctonia solani was 100% each time. Also, the inhibition at 300 ppm in the experiment with Pyricularia oryzae [4] was found to be 100%. Besides, the pest or weed control at 500 ppm in the experiment with Botrytis cinera was 70 to 100%.

With `CCN(C)C=Nc1cc(Cl)c(Cc2cccc(C(F)(F)F)c2)cc1Cl` [Compound 183, N′-(2,5-dichloro-4-(3-(trifluoromethyl)benzyl)phenyl)-N-ethyl-N-methylformimidamide], the pest or weed control at 500 ppm in the experiment on Fusarium culmorum [3] and in the experiment on Pyricularia oryzae [5] was 70 to 100% in each case. In addition, the inhibition of growth at 300 ppm is above 80% with Botrytis cinerea, above 80% in the experiment on Rhizoctonia solani and above 75% with Pyricularia oryzae [4].

As to `CCN(C)C=Nc1cc(C)c(Cc2ccccc2)cc1C` [Compound 1, N′-(4-benzyl-2,5-dimethylphenyl)-N-ethyl-N-methylformimidamide], the inhibition of growth at 300 ppm in the experiment with Colletotrichum capsici was above 80%; in the experiment with Alternaria solani [1], above 75%; with Septoria lycopersici, above 70%; in the experiment on Fusarium culmorum [2], 75%; with Botrytis cinerea it was above 80%; in the experiment with Rhizoctonia solani it was above 80%. In addition, the inhibition of growth at 300 ppm in the experiment with Pyricularia oryzae [4] is above 75%. In addition, the inhibition at 300 ppm in the experiment on Colletotrichum capsici, with Corynespora cassicola, with Alternaria solani [1], in the experiment with Fusarium culmorum [2], with Botrytis cinerea (setting [7]) and in the experiment with Rhizoctonia solani was 100% in each case. In addition, in the experiment on Pyricularia oryzae [4], the inhibition at 300 ppm is 100%. Further, the pest or weed control at 500 ppm in the experiment with Botrytis cinera and in the experiment on Fusarium culmorum [3] was 70 to 100% in each case.

As to `Cc1cc(C(C#N)c2cccc(C(F)(F)F)c2)c(C)cc1N=CN(C)C` (stereo not drawn) [N′-(4-(cyano(3-(trifluoromethyl)phenyl)methyl)-2,5-dimethylphenyl)-N,N-dimethylformimidamide, reference compound], the inhibition at 300 ppm in the experiment on Colletotrichum capsici was 41.3%; in the experiment with Corynespora cassicola, 58.7%; with Alternaria solani [1] it was 79.8%; in the experiment on Fusarium culmorum [2] it was 0%; in the experiment with Botrytis cinerea (setting [7]), 77.3%; in the experiment on Rhizoctonia solani, 80.9%. Besides, the inhibition at 300 ppm in the experiment on Pyricularia oryzae [4] was 100%.
